According to patent US20130034496A1, “POSITRON EMISSION TOMOGRAPHY TRACER” (UNIVERSITY OF IOWA RESEARCH FOUNDATION, priority 2011, published 2013):
Like-named read-outs stand apart in the source and are kept apart here.

Key:
[1] = Experimental: Stability of MTHF in culture medium—Folate-free RPMI 1640 (Invitrogen), fortified with 10% Fetal bovine serum (FBS, Sigma, qualified) (1 mL) in an eppendorf tube (1.5 mL) was spiked with MTHF (10 nM-100 μM) containing ˜0.05 μCi (˜1×10^5 DPM) of ^14C-MTHF as a radiotracer, and incubated under normal culture conditions (see below) for 0, 5, 30, 60, and 120 min. […] The mixture was incubated at 30° C. for 15 min and then filtered through 10K MWCO filter to remove protein. A 100 μl filtrate was analyzed by HPLC to determine the amount of dTMP formed from MTHF. A zorbax column (4.6 mm×15 cm) was eluted with a gradient of 2% to 5% methanol in 100 mM potassium phosphate, pH 6 over 2 min. The isocratic elution at this composition was conducted for 3 min and then changed linearly to 50% methanol in next 5 min. The system was held at this composition for next 5 min, and then increased up to 95% methanol to clean the column. Under these conditions, dUMP was eluted at 3.2 min, dTMP eluted at 5.8 min and MTHF/DHF eluted at 16 min. Identification and quantitation of dTMP was accomplished by comparing the retention time and area under peak of the standard solutions of dTMP.
Stability of MTHF in culture medium—The stability of MTHF might limit its pharmaceutical use. […] The inventors therefore measured the stability of MTHF in culture medium. Concentrations of MTHF ranging from 10 nM to 100 μM, containing a fixed amount of radiotracer (C-14) were incubated in culture medium, under the conditions used for cell incorporation experiments. MTHF remaining in the medium at different time points was measured by quantitatively converting dUMP +^14C-MTHF to ^14C-dTMP by the ecTSase-catalyzed reaction. The amount of ^14C-dTMP formed was then analyzed by HPLC connected with radioactive flow detector (FIG. 2). Data were fitted to a single exponential decay. The analytical assay in which ^14C-MTHF is quantitatively converted to ^14C-dTMP was developed, tested, and used in many of our kinetic isotope effect measurements while studying TSase.

[2] = tested on: MIAPaCa, PANC1, H292, A549, SQ20B, Cal 27 and Fadu; assay: Uptake and retention in cancer cell lines (Example 3); assay type: cell-based
Experimental: Additional studies were performed as described above using the following cell lines:
Pancreatic cancer - MIAPaCa and PANC1
Head and Neck cancer—SQ20B, Cal 27 and Fadu

HMEC [3] = tested on: HMEC
MCF-10A [4] = tested on: MCF-10A
hTERT-HME1 [5] = tested on: hTERT-HME1
MDA-MB231 [6] = tested on: MDA-MB231
MCF-7 [7] = tested on: MCF-7
FHC [8] = tested on: FHC
HT-29 [9] = tested on: HT-29
cancerous cell lines [10] = tested on: cancerous cell lines
cancerous cell lines [11] = assay: Washout of label from cells / retention; assay type: cell-based, human
Experimental: (§1) Washout of label from cells—After labeling cells grown in four plates as described before, one culture plate was processed and total incorporation was measure by liquid scintillation counter (LSC). This uptake was regarded as 100%. From the remaining three culture plates, medium was removed, cells were washed twice with cold PBS and then normal growth medium (5 mL) was added at 37° for 30 min. The radiotracer released in the medium after 30 min was counted by LSC in triplicate, and cells were replenished with fresh 5 mL medium for next 30 min washing. The release of radiotracer was followed up to 120 min. Measurement of cell growth rate-The cells were seeded at a density of 4×10^4 cells/cm^2 in each of four 6-cm (20 cm^2) plates containing 5 mL medium and placed in incubator maintained at the conditions described above. Once the cells were in log-phase (48 h post plating), two plates were processed to count the total cells. The average number of cells from these plates was regarded as pl. After next 24 h, the remaining two plates were processed, and the total cells were counted again (p2). The doubling time was then calculated by using formula
(§2) To examine the release of radioactivity from these cells, the ^14C-MTHF-loaded cells (after 2 hours uptake) were placed in fresh complete medium containing an excess of unlabeled folate at 37° C. The medium was replaced after every 30 min and the radiotracer released in the medium was measured by LSC. […] In case of cancerous cell lines, the release of the radiotracer was not more than 20%. After 30 min, the release of the radioactivity in the medium was slow and reached to the background value after two successive washings. After washing, the label retained in each cell line was determined and plotted in FIG. 6.

normal cells = assay: Washout of label from cells / retention; assay type: cell-based, human
Experimental: as §1, §2

MIAPaCa tumor = assay: Animal studies with ^14C-MTHF, distribution of radioactivity; assay type: in vivo; conditions: nude mice with MIAPaCa tumor; after one hour
FHC [12] = assay: Cell cycle analysis (propidium iodide, flow cytometry); assay type: cell-based, human; conditions: aphidicolin-arrested cells
Experimental: (§3) Cell cycle analysis—Cells in log phase at the same confluency used for uptake experiments or growth inhibited cells by aphidicolin treatment were harvested using trypsin and washed twice with cold PBS. The cells were suspended as 1×10^6/ml density in PBS and fixed with 70% ethanol at −20° C. The DNA content of the cells was stained with 1 mL of staining buffer containing propidium iodide (5 μg/ml), RNAse A (1 mg/ml), glucose (1 mg/ml) in PBS. The stained cells were filtered through 70 μm nylon strainer and then analyzed for DNA content on FASCan flow-cytometer (Becton Dickinson) using Flo-Jo software.
(§4) Cell cycle vs. MTHF uptake. Biosynthesis of DNA and its precursor bases increases during S-phase of the cell cycle. […] Unsynchronized cells, as used for labeling, were alcohol-fixed and the DNA stained with propidium iodide (PI). DNA content can be used as a proxy for determining cell cycle stage. The DNA content was then analyzed by FACSCAN flow cytometer and data were processed by using Facscaliber software. […] Alternatively, when the cells were treated with aphidicolin, an inhibitor of DNA polymerase-α, the proliferation index is reduced up to 4-fold. […] In another experiment, we treated cells with a chemotherapeutic agent (methotrexate) for 24 h and then incubated with ^14C-MTHF for 1 h and observed a 90-95% decline in uptake relative to cells not treated with methotrexate.

HMEC [13] = assay: as above; assay type: cell-based, human; conditions: aphidicolin-arrested cells
Experimental: as §3, §4

HT-29 [14] = assay: as above; assay type: cell-based, human; conditions: aphidicolin-arrested cells
Experimental: as §3, §4

MCF-10A [15] = assay: as above; assay type: cell-based, human; conditions: aphidicolin-arrested cells
Experimental: as §3, §4

MCF-7 [16] = assay: as above; assay type: cell-based, human; conditions: aphidicolin-arrested cells
Experimental: as §3, §4

MDA-MB231 [17] = assay: as above; assay type: cell-based, human; conditions: aphidicolin-arrested cells
Experimental: as §3, §4

hTERT-HME1 [18] = assay: as above; assay type: cell-based, human; conditions: aphidicolin-arrested cells
Experimental: as §3, §4

cells [19] = assay: Cell cycle analysis, aphidicolin-treated cells; assay type: cell-based; conditions: cells treated with aphidicolin
Experimental: as §3, §4

cells [20] = assay: ^14C-MTHF uptake after methotrexate treatment; assay type: cell-based; conditions: methotrexate 24 h, then ^14C-MTHF 1 h
[21] = normal growing cells, 20 μM MTHF with ^14C tracer
[22] = first 30 min incubation in fresh medium after 2 hours uptake

With “(R)—N^5,N^10-methylene-5,6,7,8-tetrahydrofolate [MTHF]” the “rate of decomposition kdec” value ([1]; 10 nM MTHF in culture medium) was 0.00121 s⁻¹, the half-life ([1]; 20 μM MTHF in culture medium) was 1.3 h and the “rate of decomposition kdec” value ([1]; 100 μM MTHF in culture medium) was 3.23e-05 s⁻¹. For the same molecule, the “stability of MTHF (time)” value ([1]; 100 μM MTHF in culture medium) was “up to 330 min”, the “uptake and retention of the radioactivity” value ([2]; pancreatic, lung, head and neck cancer cell lines) was “good uptake and retention” and the MTHF uptake (HMEC [3]; aphidicolin-arrested cells) was 1.23 ×10^−3/10^6 cells. The MTHF uptake (HMEC [3]; [21]) was 5.98 ×10^−3/10^6 cells, the MTHF uptake (MCF-10A [4]; aphidicolin-arrested cells) was 2.34 ×10^−3/10^6 cells and the MTHF uptake (MCF-10A [4]; [21]) was 7.79 ×10^−3/10^6 cells. The MTHF uptake (hTERT-HME1 [5]; aphidicolin-arrested cells) was 5.74 ×10^−3/10^6 cells, the MTHF uptake (hTERT-HME1 [5]; [21]) was 67.3 ×10^−3/10^6 cells and the MTHF uptake (MDA-MB231 [6]; aphidicolin-arrested cells) was 3.45 ×10^−3/10^6 cells. For the same molecule, the MTHF uptake (MDA-MB231 [6]; [21]) was 81.3 ×10^−3/10^6 cells, the MTHF uptake (MCF-7 [7]; aphidicolin-arrested cells) was 4.92 ×10^−3/10^6 cells and the MTHF uptake (MCF-7 [7]; [21]) was 80.0 ×10^−3/10^6 cells. For the same molecule, the “uptake in FHC cells (FIG. 4)” value (FHC [8]; 20 μM MTHF) was “not higher than background”, the MTHF uptake (FHC [8]; aphidicolin-arrested cells) was 0.54 ×10^−3/10^6 cells and the MTHF uptake (FHC [8]; [21]) was 0.94 ×10^−3/10^6 cells. For the same molecule, the MTHF uptake (HT-29 [9]; aphidicolin-arrested cells) was 3.82 ×10^−3/10^6 cells, the “uptake, HT29 versus normal FHC cells” value (HT-29 [9]; colon cancer HT29 versus FHC, 20 μM MTHF) was “at least 30 times” and the MTHF uptake (HT-29 [9]; [21]) was 48.9 ×10^−3/10^6 cells. For the same molecule, the “label uptake, cancerous versus non-cancerous control cell lines” value (cancerous cell lines [10]; HEMC-hTERT, MCF7 and MDA-MB231 versus HMEC, MCF10A, 20 μM MTHF) was “more than 3 fold” and the “time at which uptake of label reached a maximum level” value (cancerous cell lines [10]; cancerous cell lines, steady state) was 60 min.
For `Nc1nc2c(c(=O)[nH]1)N1[14CH2]N(c3ccc(C(=O)N[C@@H](CCC(=O)O)C(=O)O)cc3)C[C@H]1CN2` [^14C-MTHF, [11-^14C]—(R)—N^5,N^10-methylene-5,6,7,8-tetrahydrofolate], the “label retained after washing (FIG. 6)” value (cancerous cell lines [11]; MDA-MB231, MCF7, hTERT, HT29, successive 30 min washes, 2 h) was “retained the highest amount of tracer”, the release of radiotracer (cancerous cell lines [11]; [22]) was “not more than 20%” and the release of radiotracer (normal cells; [22]) was greater than 50%. The “label retained after washing (FIG. 6)” value (normal cells; non-cancer counterparts, successive 30 min washes, 2 h) was “retained a much lower, near-background amount of label” and the distribution of radioactivity/cell (MIAPaCa tumor) was “most of the radioactivity/cell was in the tumor and kidney”.
With `C[C@@]1(CO)[C@H](O)CC[C@@]2(C)[C@H]1CC[C@H]1C[C@@H]3C[C@@]12CC[C@]3(O)CO` [aphidicolin] the “Proliferation index (S + G2M)” value (FHC [12]) was 3%, the “Proliferation index (S + G2M)” value (HMEC [13]) was 4% and the “Proliferation index (S + G2M)” value (HT-29 [14]) was 6%. For the same molecule, the “Proliferation index (S + G2M)” value (MCF-10A [15]) was 3%, the “Proliferation index (S + G2M)” value (MCF-7 [16]) was 5% and the “Proliferation index (S + G2M)” value (MDA-MB231 [17]) was 6%. For the same molecule, the “Proliferation index (S + G2M)” value (hTERT-HME1 [18]) was 6% and the “reduction of proliferation index” value (cells [19]) was “up to 4 fold”.
With `CN(Cc1cnc2nc(N)nc(N)c2n1)c1ccc(C(=O)N[C@@H](CCC(=O)O)C(=O)O)cc1` [methotrexate, reference compound] the “decline in ^14C-MTHF uptake relative to untreated cells” value (cells [20]) was 90-95% and the “effect of methotrexate on tracer uptake” value ([2]; small dose of MTX) was “uptake enhancement”.
